In PubChem BioAssay (NCI):
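Following 48 hours of exposure in 96-well plates, responses at five concentrations were used to interpolate endpoints linearly. GI50: concentration for 50% inhibition of growth. At the TGI there is no net growth.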

What was measured:
Assay in all cases: inhibition of tumour cell growth, NCI panel, 48 h
COLO 205 colon = system: COLO 205 colon
HCT-15 colon = system: HCT-15 colon
IGROV1 ovarian = system: IGROV1 ovarian
LOX IMVI melanoma = system: LOX IMVI melanoma
OVCAR-8 ovarian = system: OVCAR-8 ovarian
SK-MEL-2 melanoma = system: SK-MEL-2 melanoma
SK-OV-3 ovarian = system: SK-OV-3 ovarian
SNB-75 CNS = system: SNB-75 CNS
U251 CNS = system: U251 CNS
EKVX NSCLC = system: EKVX NSCLC

Compound | GI50 (COLO 205 colon) [µM] | TGI (COLO 205 colon) [µM] | GI50 (HCT-15 colon) [µM] | TGI (HCT-15 colon) [µM] | GI50 (IGROV1 ovarian) [µM] | TGI (IGROV1 ovarian) [µM] | GI50 (LOX IMVI melanoma) [µM] | TGI (LOX IMVI melanoma) [µM] | GI50 (OVCAR-8 ovarian) [µM] | TGI (OVCAR-8 ovarian) [µM] | GI50 (SK-MEL-2 melanoma) [µM] | TGI (SK-MEL-2 melanoma) [µM] | GI50 (SK-OV-3 ovarian) [µM] | TGI (SK-OV-3 ovarian) [µM] | GI50 (SNB-75 CNS) [µM] | TGI (SNB-75 CNS) [µM] | GI50 (U251 CNS) [µM] | TGI (U251 CNS) [µM] | TGI (EKVX NSCLC) [µM] | GI50 (EKVX NSCLC) [µM]
CCCc1nc2c(C)cc(-c3nc4ccccc4n3C)cc2n1Cc1ccc(-c2ccccc2C(=O)O)cc1 | 42.4 | > 100 | 20.3 | > 100 | 43.5 | > 100 | 23.2 | > 100 | 35.4 | > 100 | 36.6 | 97.3 | > 100 | > 100 | 56 | > 100 | 20.2 | 51.8 | – | –
O=C(/C=C\c1ccc(Cl)cc1Cl)c1cccs1 | – | 30.7 | – | 34.4 | – | – | – | – | – | 24.8 | – | 35.5 | – | 59.3 | – | 42.2 | – | – | 34.3 | –
COc1ccc(/C(C)=N/OC(=O)c2c(-c3ccccc3Cl)noc2C)cc1CN1CCOCC1 | – | 31.3 | – | > 100 | – | 65.6 | – | 28.1 | – | > 100 | – | 34.2 | – | > 100 | – | 94 | – | 97.7 | – | –
Nc1ccn(C2CC(CO)C(O)C2O)c(=O)n1 (stereo unspecified) | – | > 57.7 | – | > 57.7 | – | > 57.7 | – | – | – | > 57.7 | – | > 57.7 | – | > 57.7 | – | > 57.7 | – | > 57.7 | > 57.7 | –
COc1ccc(/C=C2\CCC(C)(CN(C)C)C2=O)cc1 (stereo unspecified) | – | > 100 | – | > 100 | – | > 100 | – | > 100 | – | > 100 | – | > 100 | – | – | – | > 100 | – | > 100 | > 100 | –
COc1ccc(-c2nc(-c3nc4ccc(OC)cc4[nH]3)cc3c2[nH]c2ccccc23)cc1 | 6.76 | > 100 | 2.88 | > 100 | 2.83 | > 100 | 3.14 | > 100 | 1.04 | > 100 | 3.31 | 49.2 | > 100 | > 100 | – | – | 2.89 | > 100 | – | –
COc1cc(C(=O)c2cc3c(cc2C)OCO3)cc(OC)c1OC | 0.0584 | 0.413 | 0.0528 | > 100 | 0.371 | > 100 | 0.551 | > 100 | 0.317 | > 100 | 0.734 | > 100 | 0.0874 | > 100 | 0.0429 | > 100 | 0.158 | > 100 | – | –
CC1C=CC(=O)C(n2cc(F)c(=O)[nH]c2=O)O1 (stereo unspecified) | – | 35.9 | – | 42.4 | – | 45.2 | – | 33.6 | – | 65.4 | – | – | – | 61 | – | 38.2 | – | 29.5 | 50.9 | –
COC(=O)[C@]1(C)CCC[C@@]2(C)C1CCC1=CC3(C(C)C)CCC12OO3 (stereo partly specified) | – | > 100 | – | > 100 | – | > 100 | – | > 100 | – | > 100 | – | > 100 | – | > 100 | – | – | – | > 100 | > 100 | –
O=C(Nc1c(O)[nH]c(=S)[nH]c1=O)c1ccc2ccccc2n1 | – | > 100 | – | > 100 | – | > 100 | – | > 100 | – | > 100 | – | – | – | > 100 | – | > 100 | – | > 100 | – | –
COc1cc2nc(Nc3cccc(F)c3)nc(Nc3cc(C)[nH]n3)c2cc1OC | 2.25 | 4.99 | 1.22 | 2.72 | – | – | 1.72 | 3.11 | 1.76 | 5.61 | 2.1 | 4.08 | 1.86 | 3.37 | 1.52 | 2.95 | 1.82 | 3.73 | 3.41 | 1.75
CC(C)=CC(=O)Cc1nc2cc(C)c(C)cc2[nH]c1=O | – | > 100 | – | > 100 | – | > 100 | – | > 100 | – | – | – | > 100 | – | > 100 | – | > 100 | – | > 100 | > 100 | –
C=C(C)[C@@H]1CC[C@]2(C)[C@H](CC[C@@H]3[C@H]4[C@H]5OC[C@@]4(CCC5(C)C)CC[C@]32C)[C@@]1(C)CCCN | 2.15 | 4.65 | 1.59 | 2.99 | 1.8 | 3.36 | 0.0275 | 0.489 | – | – | – | – | – | – | 1.53 | 3.11 | 1.67 | 3.15 | 3.31 | 1.81
Nc1c(C(=O)Nc2ccccc2Cl)sc2nc3c(cc12)CCCCCC3 | 8.52 | > 100 | 1.59 | > 100 | – | – | 5.7 | > 100 | 4.11 | 30.5 | 2.77 | 23.1 | 2.65 | 7.88 | 1.57 | 3.35 | 2.99 | 21.3 | – | –
CC12CCC[C@@](C)(C(=O)OC3OC(CO)C(O)C(O)C3O)[C@H]1CCC13CC4CC(OC4(CO)[C@H]1O)[C@@H]23 (stereo partly specified) | – | – | – | > 100 | – | > 100 | – | – | – | > 100 | – | > 100 | – | > 100 | – | > 100 | – | > 100 | > 100 | –
CN(C)CCNC(=O)c1cccc2[nH]c(-c3ccccc3)nc12 | – | 24.7 | – | 34.5 | – | 50.9 | – | 29.7 | – | – | – | 32.5 | – | 56.3 | – | 75.3 | – | 65.1 | 53.5 | –
CC(C)(C)C(=O)C1CC(=O)c2ccccc2C1=O (stereo unspecified) | – | > 100 | – | – | – | > 100 | – | > 100 | – | > 100 | – | 33.1 | – | 75 | – | 31.3 | – | 99.7 | > 100 | –
CC1OC(OCC2COC(O)(Oc3c(-c4ccc(O)c(O)c4)oc4cc(O)cc(O)c4c3=O)C(O)C2O)C(O)C(O)C1O (stereo unspecified) | – | > 100 | – | > 100 | – | > 100 | – | > 100 | – | > 100 | – | – | – | > 100 | – | > 100 | – | > 100 | > 100 | –
COc1ccc(C2=NN(C(C)=O)C(c3cn(-c4ccccc4)nc3-c3ccc(Cl)cc3)C2)cc1 (stereo unspecified) | > 100 | > 100 | – | > 100 | > 100 | > 100 | > 100 | > 100 | – | – | > 100 | > 100 | 4.64 | > 100 | 9.08 | > 100 | 7.44 | > 100 | > 100 | > 100
